The source of these data is patent US9873693B2 (Sunesis Pharmaceuticals, Inc., priority 2006, dated 2018).

One assay deals with dephosphorylated PDK1 (Homo sapiens (Human), UniProt O15530). Put plainly: PDK1 kinase assay (coupled PDK1/AKT/FAM-crosstide, IMAP). It counts as biochemical. Particulars: 25 nM un-phosphorylated PDK1, 24 μM ATP; read-out: Inhibition of dephospo-PDK1 in vitro IC50. The protocol:
A PDK1 kinase assay was performed as follows. PDK1 (amino acids 51-360) and AKT2 (amino acids 140-467 fused to PIFtide, amino acids […]) were expressed as N-terminally tagged GST fusion proteins in insect cells and purified to greater than 90% homogeneity. PDK1 protein was divided into two fractions, one of which was subsequently dephosphorylated. To generate dephosphorylated PDK1, the PDK1 was reacted with GST-tagged lambda-phosphatase in vitro. GST was subsequently cleaved proteolytically for both phosphorylated and dephosphorylated PDK1. Protein preparations were run on glutathione Sepharose columns to remove GST and GST-tagged lambda-phosphatase, if present. Phosphorylated PDK1 and dephosphorylated PDK1 were verified by mass-spectrometry. Enzyme activity was determined in a coupled PDK1/AKT/FAM-crosstide assay using either phosphorylated or unphosphorylated PDK1 and phosphorylation of FAM-crosstide was determined by standard IMAP protocol (Molecular Devices). For inhibition studies, compounds were titrated 3-fold in DMSO and diluted 40-fold into assay buffer (10 mM Tris HCl pH7.2; 10 mM MgCl2; 0.01% Triton X-100; 1 mM DTT) containing PDK1, AKT2, and FAM-crosstide. (final concentrations: 25 nM un-phosphorylated PDK1 or 0.5 nM phosphorylated PDK1, 30 nM unphosphorylated AKT2, and 100 nM crosstide substrate). The kinase reaction was initiated by adding ATP to a final concentration of 24 μM for both forms of PDK1 and incubated at 25° C. for 30 min. To detect assay product, the kinase reaction was combined with Progressive Binding Solution (1:600 Progressive Binding Reagent, 50% Buffer A, 50% Buffer B, Molecular Devices) in a 1:3 ratio. The mixture was incubated for 2 hours at 25° C. and the plate was scanned on an Analyst AD with excitation at 485 nm and emission at 530 nm. The fluorescence polarization value “P” is defined by the equation below. The value “mP” is generated by multiplying the P value for each reaction well by a factor of 1000. The value “ΔmP” for each well is the mP value for that well minus the mP value for the average negative control. P=(Fpar−Fperp)/(Fpar+Fperp) Eq.:
Where “par” is fluorescence intensity parallel to the excitation plane; and “perp” is fluorescence intensity perpendicular to the excitation plane. ΔmP values were plotted as a function of compound concentration and the data were analyzed with a 4-parameter fit using GraphPad Prism software.

Another assay has as its system phospho-akt (Thr308). Description: phospho-akt (Thr308) MSD ELISA in PC-3 cells. The settings on record: Homo sapiens, PC-3, 2 h. In kind it is cell-based. The method in brief:
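Read-out is MSD electrochemiluminescence after lysate capture overnight at 4 degrees and 1 hr RT detection-antibody step. Before lysis, overnight-plated PC-3 cells received three-fold serial dilutions of inhibitor in serum-free medium, with DMSO-only high controls.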

The target in the next assay is phosphorylated PDK1 (Homo sapiens (Human), UniProt O15530). Put plainly: PDK1 kinase assay (coupled PDK1/AKT/FAM-crosstide, IMAP). The settings on record: 0.5 nM phosphorylated PDK1, 24 μM ATP; read-out: Inhibition of phospo-PDK1 in vitro IC50. It counts as biochemical.
Setting [1] is: PC-3 cells, 2 hours, no serum, read-out: Inhibition of P308 Akt in cells using MSD EC50.
Where [2] appears, read: PC-3 cells, 2 hours, no serum, read-out: Reduction of Cellular Levels of Akt p308 By MSD ELISA (EC50 μM).

Like-named read-outs stand apart in the source and are kept apart here.

One may read the IC50 as the concentration that inhibits the measured activity by half. By EC50 is commonly meant the concentration giving half of the maximal effect.

phosphorylated PDK1, sequence (O15530 51-360): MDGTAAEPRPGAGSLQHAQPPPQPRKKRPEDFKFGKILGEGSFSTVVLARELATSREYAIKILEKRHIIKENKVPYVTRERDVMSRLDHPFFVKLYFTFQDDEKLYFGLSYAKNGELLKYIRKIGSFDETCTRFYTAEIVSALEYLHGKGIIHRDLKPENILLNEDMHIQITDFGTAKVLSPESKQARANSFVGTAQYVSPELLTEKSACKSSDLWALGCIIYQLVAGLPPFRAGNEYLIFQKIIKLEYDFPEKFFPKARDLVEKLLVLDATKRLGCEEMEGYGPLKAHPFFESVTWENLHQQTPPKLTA
dephosphorylated PDK1, sequence (O15530 51-360): as above

As to `O=C(NCc1noc(-c2c[nH]c3ncccc23)n1)c1cccn(Cc2cc(F)cc(F)c2)c1=O` [Cpd 150], the 50% inhibitory concentration (IC50) at dephosphorylated PDK1 and at phosphorylated PDK1 was < 500 nM each time. The EC50 with phospho-akt (Thr308) (setting [1]) is > 5 µM.
Regarding `O=C(NCc1cccc(-c2ccc3cn[nH]c3c2)c1)c1cccn(Cc2ccc(F)c(F)c2)c1=O` [Cpd 328], the IC50 on dephosphorylated PDK1 and on phosphorylated PDK1 was < 500 nM each time. Further, the EC50 in the assay with phospho-akt (Thr308) (setting [1]) was > 5 µM.
As for `NC(=O)C(NC(=O)c1cccn(Cc2ccc(F)c(F)c2)c1=O)c1ccc(-c2c[nH]c3ncccc23)s1` (stereo not shown) [Cpd 24], the IC50 at dephosphorylated PDK1 and at phosphorylated PDK1 was < 500 nM each time. Further, the EC50 in the assay with phospho-akt (Thr308) (read-out: Inhibition of P308 Akt in cells using MSD EC50) and in the assay with phospho-akt (Thr308) (read-out: Reduction of Cellular Levels of Akt p308 By MSD ELISA (EC50 μM)) was 1 to 5 µM throughout.
Regarding `O=C1Cc2ccc(/C=C/CNC(=O)c3cccn(Cc4cc(F)c(F)c(F)c4)c3=O)cc2N1` [Cpd 166], the 50% inhibitory concentration (IC50) at dephosphorylated PDK1 and at phosphorylated PDK1 was < 500 nM in each case. Besides, in the assay with phospho-akt (Thr308) (setting [1]), the 50% effective concentration (EC50) was > 5 µM.
Regarding `O=C(NCc1noc(-c2c[nH]c3ncccc23)n1)c1cccn(Cc2ccc(C(F)(F)F)cc2)c1=O` [Cpd 143], the IC50 on dephosphorylated PDK1 and at phosphorylated PDK1 was < 500 nM each time. For the same compound, the 50% effective concentration (EC50) in the assay on phospho-akt (Thr308) (setting [1]) and with phospho-akt (Thr308) (setting [2]) was > 5 µM each time.
As for `O=C(NCc1csc(-c2c[nH]c3ncccc23)n1)c1cccn(Cc2ccc(F)c(F)c2)c1=O` [Cpd 121], the half-maximal inhibitory concentration (IC50) on dephosphorylated PDK1 and on phosphorylated PDK1 was < 500 nM each time. The concentration for a half-maximal effect (EC50) in the assay on phospho-akt (Thr308) (setting [1]) is < 1 µM.
In the case of `O=C(NCc1noc(-c2c[nH]c3ncccc23)n1)c1cccn(Cc2ccc(C(F)(F)F)c(F)c2)c1=O` [Cpd 141], the IC50 on dephosphorylated PDK1 and at phosphorylated PDK1 was < 500 nM each time. The EC50 with phospho-akt (Thr308) (setting [1]) and in the assay on phospho-akt (Thr308) (setting [2]) was 1 to 5 µM each time.
Turning to `Cn1c(=O)[nH]c2cc(OCCNC(=O)c3cccn(Cc4ccc(F)c(F)c4)c3=O)ccc21` [Cpd 119, N-(3-(4-chloro-H-pyrrolo[2,3-b]pyridin-3-yl)benzyl)-1-(3,4-difluorobenzyl)-2-oxo-1,2-dihydropyridine-3-carboxamide], the half-maximal inhibitory concentration (IC50) at dephosphorylated PDK1 and on phosphorylated PDK1 was < 500 nM each time.
With `CNC(=O)[C@H](COc1ccc2[nH]c(=O)[nH]c2c1)NC(=O)c1cccn(Cc2cc(F)c(F)c(F)c2)c1=O` [Cpd 157], the concentration for half-maximal inhibition (IC50) at dephosphorylated PDK1 and at phosphorylated PDK1 was < 500 nM in each case.
In the case of `O=C(NCc1nc(-c2c[nH]c3ncccc23)cs1)c1cccn(Cc2cccc(Cl)c2)c1=O` [Cpd 272], the IC50 at dephosphorylated PDK1 and at phosphorylated PDK1 was < 500 nM each time.
As for `Nc1cnc(Nc2cccc(NC(=O)N3CCCC3)c2)nc1NCCCCCCNC(=O)c1cccn(Cc2cccc(Cl)c2)c1=O` [Cpd 249], the figures for the IC50 at dephosphorylated PDK1 and on phosphorylated PDK1 were < 500 nM and > 10000 nM, respectively.
For `NC(=O)Nc1ccc(OCCNC(=O)c2cccn(Cc3ccc(F)c(F)c3)c2=O)cc1` [Cpd 122], the results for the IC50 on dephosphorylated PDK1 and on phosphorylated PDK1 were < 500 nM and 500 to 10000 nM, respectively.
In the case of `O=C(NCCOc1cc2[nH]c(=O)[nH]c2cc1F)c1cccn(Cc2ccc(F)c(F)c2)c1=O` [Cpd 155], the IC50 is < 500 nM on dephosphorylated PDK1 and 500 to 10000 nM on phosphorylated PDK1.
For `Cc1sc(CNC(=O)c2cccn(Cc3ccc(F)c(F)c3)c2=O)nc1-c1c[nH]c2ncccc12` [Cpd 275], the half-inhibitory concentration (IC50) on dephosphorylated PDK1 is < 500 nM; at phosphorylated PDK1 it was 500 to 10000 nM.
Take `O=C(NCCOc1cc(F)c2[nH]c(=O)[nH]c2c1)c1cccn(Cc2ccc(F)c(F)c2)c1=O` [Cpd 158]: the half-inhibitory concentration (IC50) is < 500 nM on dephosphorylated PDK1 and 500 to 10000 nM on phosphorylated PDK1.
For `COc1ccnc(NCCC#CCNC(=O)c2cccn(Cc3cccc(Cl)c3)c2=O)n1` [Cpd 262], the IC50 at dephosphorylated PDK1 and on phosphorylated PDK1 was < 500 nM throughout.
For `O=C(NCc1ncc(-c2c[nH]c3ncccc23)o1)c1cccn(Cc2ccc(F)c(F)c2)c1=O` [Cpd 120], the half-maximal inhibitory concentration (IC50) on dephosphorylated PDK1 and at phosphorylated PDK1 was < 500 nM each time.
`O=C(NCCOc1ccc2c(c1)[nH]c(=O)n2CCN1CCCC1)c1cccn(Cc2ccc(F)c(F)c2)c1=O` [Cpd 130]: the concentration for half-maximal inhibition (IC50) on dephosphorylated PDK1 and on phosphorylated PDK1 was 500 to 10000 nM throughout.
Take `COc1ccnc(NCCC#CCCNC(=O)c2cccn([C@H](C)c3ccc(Cl)cc3)c2=O)n1` [Cpd 259]: the IC50 at dephosphorylated PDK1 and on phosphorylated PDK1 was < 500 nM in each case.
For `COc1ccnc(NCCCCCNC(=O)c2cccn(C(C)c3ccc(Cl)cc3)c2=O)n1` (stereo not shown) [Cpd 105], the IC50 was < 500 nM at dephosphorylated PDK1 and 500 to 10000 nM on phosphorylated PDK1.
`O=C(NCc1cccc(-c2ccc3nsnc3c2)c1)c1cccn(Cc2ccc(F)c(F)c2)c1=O` [Cpd 218]: the half-maximal inhibitory concentration (IC50) was 500 to 10000 nM at dephosphorylated PDK1 and > 10000 nM on phosphorylated PDK1.
Consider `O=C(NCc1cccc(-c2c[nH]c3ncc(-c4ccco4)cc23)c1)c1cccn(Cc2ccc(F)c(F)c2)c1=O` [Cpd 57], for which the half-inhibitory concentration (IC50) on dephosphorylated PDK1 and at phosphorylated PDK1 was < 500 nM throughout.
On to `COc1ccnc(NCCC#CCCNC(=O)c2cc(Cl)cn(Cc3ccc(Cl)cc3)c2=O)n1` [Cpd 256], for which the figures for the IC50 on dephosphorylated PDK1 and at phosphorylated PDK1 were < 500 nM and 500 to 10000 nM, respectively.
For `C[C@@H](NC(=O)c1cccn(Cc2ccc(F)c(F)c2)c1=O)c1nc(-c2c[nH]c3ncccc23)cs1` [Cpd 114], in that order: < 500 nM and < 500 nM.
For the compound `COc1ccnc(NCCC#CCCNC(=O)c2cccn(Cc3ccc(F)c(F)c3)c2=O)n1` [Cpd 263], the IC50 at dephosphorylated PDK1 and on phosphorylated PDK1 was < 500 nM in each case.
For `O=C(NS(=O)(=O)c1ccc(-c2c[nH]c3ncccc23)s1)c1cccn(Cc2ccc(F)c(F)c2)c1=O` [Cpd 231], the concentration for half-maximal inhibition (IC50) at dephosphorylated PDK1 and on phosphorylated PDK1 was 500 to 10000 nM throughout.
`CCc1ccnc(NCCC#CCCNC(=O)c2cc(Cl)cn(Cc3cccc(Cl)c3)c2=O)n1` [Cpd 257]: the IC50 on dephosphorylated PDK1 and on phosphorylated PDK1 was < 500 nM each time.
As for `O=C(NCc1nnc(-c2c[nH]c3ncccc23)s1)c1cccn(Cc2ccc(F)c(F)c2)c1=O` [Cpd 124], the IC50 at dephosphorylated PDK1 and at phosphorylated PDK1 was < 500 nM each time.
As for `COc1ccnc(NCCCCCNC(=O)c2cccn(Cc3ccc(F)c(F)c3)c2=O)n1` [Cpd 107], the IC50 on dephosphorylated PDK1 was < 500 nM; at phosphorylated PDK1 it was 500 to 10000 nM.
In the case of `COc1ccnc(NCCCCCNC(=O)c2cccn(Cc3ccc(F)c(Cl)c3)c2=O)n1` [Cpd 266], the concentration for half-maximal inhibition (IC50) at dephosphorylated PDK1 was < 500 nM; at phosphorylated PDK1, 500 to 10000 nM.
For the compound `COc1ccnc(NCCCCCNC(=O)c2cc(Cl)cn(Cc3ccc(Cl)cc3)c2=O)n1` [Cpd 252], the IC50 is < 500 nM on dephosphorylated PDK1 and 500 to 10000 nM at phosphorylated PDK1.
Taken in the same sequence, the figures for `O=C(NCc1cccc(-c2cc(=O)[nH][nH]2)c1)c1cccn(Cc2ccc(F)c(F)c2)c1=O` [Cpd 217] were 500 to 10000 nM and > 10000 nM.
In the case of `O=C(Nc1cccc(-c2ccc3[nH]c(=O)[nH]c3c2)c1)c1cccn(Cc2ccc(F)c(F)c2)c1=O` [Cpd 162], the IC50 is < 500 nM at dephosphorylated PDK1 and 500 to 10000 nM at phosphorylated PDK1.
On to `O=C(NCCCCCNc1nc2ccccc2o1)c1cccn(Cc2cccc(Cl)c2)c1=O` [Cpd 100], for which the IC50 at dephosphorylated PDK1 is 500 to 10000 nM; on phosphorylated PDK1 it was > 10000 nM.
Regarding `O=C1CC(c2cccc(CNC(=O)c3cccn(Cc4ccc(F)c(F)c4)c3=O)c2)CN1` (stereo not shown) [Cpd 111], the IC50 at dephosphorylated PDK1 and at phosphorylated PDK1 was 500 to 10000 nM throughout.
`O=C(NC1(c2nnc(-c3c[nH]c4ncccc34)o2)CC1)c1cccn(Cc2ccc(F)c(F)c2)c1=O` [Cpd 281]: the IC50 at dephosphorylated PDK1 and on phosphorylated PDK1 was < 500 nM each time.
Take `O=C(NCc1nc(-c2c[nH]c3ncccc23)c[nH]1)c1cccn(Cc2ccc(F)c(F)c2)c1=O` [Cpd 116]: the figures for the IC50 on dephosphorylated PDK1 and at phosphorylated PDK1 were < 500 nM and 500 to 10000 nM, respectively.
In the case of `CC(=O)Nc1cc(NCCCCCNC(=O)c2cccn(Cc3cccc(Cl)c3)c2=O)ncn1` [Cpd 99], the IC50 is 500 to 10000 nM at dephosphorylated PDK1 and > 10000 nM on phosphorylated PDK1.
As for `COc1ccnc(NCCCCCNC(=O)c2cccn(Cc3ccc(Cl)c(Cl)c3)c2=O)n1` [Cpd 104], the IC50 is < 500 nM at dephosphorylated PDK1 and 500 to 10000 nM at phosphorylated PDK1.
